Results from patent US4521413A, “Cephem compounds” (Fujisawa Pharmaceutical Co., Ltd., priority 1981, dated 1985).
Converted amounts (≈) assume the structure as drawn.

Experiments:
[1] = tested on: B. subtilis ATCC 6633; experiment: Minimal inhibitory concentration (MIC), agar streak test on heart infusion agar; type: cell-based; settings: Bacillus subtilis, ATCC6633, 37° C. for 20 hours, 10^8 viable cells per ml
Method: (§1) One loopful of an overnight culture of each test strain in Trypticase-soy broth (10^8 viable cells per ml.) was streaked on heart infusion agar (HI-agar) containing graded concentrations of antibiotics, and the minimal inhibitory concentration (MIC) was expressed in terms of μg/ml after incubation at 37° C. for 20 hours.

[2] = tested on: S. marcescens 35; experiment: as above; type: cell-based; settings: Serratia marcescens, 37° C. for 20 hours, 10^8 viable cells per ml
Method: as §1

Row | MIC [1] [µg/mL] | MIC [2] [µg/mL] | SMILES
1 | 0.78 (≈ 1.5 µM) | 1.56 (≈ 3.01 µM) | CCO/N=C(\C(=O)NC1C(=O)N2C(C(=O)[O-])=C(C[n+]3cccc(NC)c3)CSC12)c1nsc(N)n1 (stereo not drawn) [Test Compound (1), 7-[2-Ethoxyimino-2-(5-amino-1,2,4,-thiadiazol-3-yl)acetamido]-3-(3-methylamino-1-pyridiniomethyl)-3-cephem-4-carboxylate (syn isomer)]
2 | 0.39 (≈ 0.732 µM) | 1.56 (≈ 2.93 µM) | CCO/N=C(\C(=O)NC1C(=O)N2C(C(=O)[O-])=C(C[n+]3cccc(N(C)C)c3)CSC12)c1nsc(N)n1 (stereo not drawn) [Test Compound (2), 7-[2-Ethoxyimino-2-(5-amino-1,2,4-thiadiazol-3-yl)acetamido]-3-(3-dimethylamino-1-pyridiniomethyl)-3-cephem-4-carboxylate (syn isomer)]
3 | 0.78 (≈ 1.5 µM) | 1.56 (≈ 3 µM) | CCO/N=C(\C(=O)NC1C(=O)N2C(C(=O)[O-])=C(C[n+]3cccc(OC)c3)CSC12)c1nsc(N)n1 (stereo not drawn) [Test Compound (3), 7-[2-Ethoxyimino-2-(5-amino-1,2,4-thiadiazol-3-yl)acetamido]-3-(3-methoxy-1-pyridiniomethyl)-3-cephem-4-carboxylate (syn isomer)]
